Data from patent US10441663B2, “Methods for treating cancer” (Bicycle Therapeutics Limited, priority 2016, dated 2019).
*1 amine or outer side, *2 acyl side, *3 side chain or, on linkers, in order; H or OH if unused. Where a SMILES comes first, the peptide text is derived from it. Bridges are numbered along the chain shown (N, C = ends). [ ]: non-standard residue; d: D form. The star is where a group is joined. X1 = COc1cc2cc(c1Cl)N(C)C(=O)C[C@H](OC(=O)[C@H](C)N(C)C(=O)CCSSC(C)CCC(=O)*)[C@]1(C)O[C@H]1[C@H](C)[C@@H]1C[C@@](O)(NC(=O)O1)[C@H](OC)/C=C/C=C(\C)C2; 1Nal = N[C@@H](Cc1cccc2ccccc12)C(=O)O; TBMB = c1c(C[*:1])cc(C[*:3])cc1C[*:2]; Tle = CC(C)(C)[C@H](N)C(=O)O; βAla = NCCC(=O)O; Sar = CNCC(=O)O

Key:
3LL syngeneic model = experiment: In vivo efficacy of BT1718 in 3LL syngeneic model (Example 9); parameters: species or system Mus Musculus
Procedure: The objective of this study was to evaluate the in vivo anti-tumor efficacy of BT1718 in the treatment of the subcutaneous 3LL syngeneic model in C57BL/6 mice.
The 3LL tumor cells were maintained in vitro as a monolayer culture in medium supplemented with 10% heat inactivated fetal bovine serum at 37° C. in an atmosphere of 5% CO2 in air. The tumor cells were routinely subcultured twice weekly by trypsin-EDTA treatment. The cells growing in an exponential growth phase were harvested and counted for tumor inoculation.
Each mouse was inoculated subcutaneously at the right flank with 3LL tumor cells (1×106) in 0.1 ml of PBS for tumor development. The animals were randomized and treatment was started when the average tumor volume reaches approximately 105 mm^3 for the efficacy study. The test article administration and the animal numbers in each group were shown in the experimental design table (Table 48).
All the procedures related to animal handling, care and the treatment in the study were performed according to the guidelines of the Association for Assessment and Accreditation of Laboratory Animal Care (AAALAC). At the time of routine monitoring, the animals were daily checked for any effects of tumor growth and treatments on normal behavior such as mobility, food and water consumption (by looking only), body weight gain/loss (body weights were measured every day), eye/hair matting and any other abnormal effect as stated in the protocol. Death and observed clinical signs were recorded on the basis of the numbers of animals within each subset.
The major endpoint was to see if the tumor growth could be delayed or mice could be cured. Tumor size was measured three times weekly in two dimensions using a caliper, and the volume was expressed in mm^3 using the formula: V=0.5 a×b2 where a and b are the long and short diameters of the tumor, respectively. The tumor size was then used for calculations of T/C value. The T/C value (in percent) is an indication of antitumor effectiveness; T and C are the mean volumes of the treated and control groups, respectively, on a given day.
TGI was calculated for each group using the formula: TGI (%)=[1−(Ti−T0)/(Vi−V0)]×100; Ti is the average tumor volume of a treatment group on a given day, T0 is the average tumor volume of the treatment group on the day of treatment start, Vi is the average tumor volume of the vehicle control group on the same day with Ti, and V0 is the average tumor volume of the vehicle group on the day of treatment start.
Summary statistics, including mean and the standard error of the mean (SEM), are provided for the tumor volume of each group at each time point.
Statistical analysis of difference in tumor volume among the groups was conducted on the data obtained at the best therapeutic time point after the final dose.
A one-way ANOVA was performed to compare tumor volume among groups, and when a significant F-statistics (a ratio of treatment variance to the error variance) was obtained, comparisons between groups were carried out with Games-Howell test. All data were analyzed using Prism. P<0.05 was considered to be statistically significant.

[1] = Preliminary metabolism studies; assay type: in vivo
From the text: Efficacy in this model was reduced in the conjugates containing the least cleavable linkers.

## COc1cc2cc(c1Cl)N(C)C(=O)C[C@H](OC(=O)[C@H](C)N(C)C(=O)CCSSC(C)CCC(=O)NCCC(=O)N(C)CC(=O)N(C)CC(=O)N(C)CC(=O)N(C)CC(=O)N(C)CC(=O)N(C)CC(=O)N(C)CC(=O)N(C)CC(=O)N(C)CC(=O)N(C)CC(=O)N[C@@H](C)C(=O)N[C@H]1CSCc3cc4cc(c3)CSC[C@H](NC(=O)[C@@H](C)NC(=O)[C@H](Cc3cccc5ccccc35)NC(=O)[C@H](CCC(=O)O)NC(=O)[C@H](CC(N)=O)NC(=O)[C@@H](C)NC1=O)C(=O)N[C@@H](CCC(=O)O)C(=O)N[C@@H](CC(=O)O)C(=O)N[C@@H](Cc1ccccc1)C(=O)N[C@@H](Cc1ccc(O)cc1)C(=O)N[C@@H](CC(=O)O)C(=O)N[C@@H](C(C)(C)C)C(=O)N[C@H](C(N)=O)CSC4)[C@]1(C)O[C@H]1[C@H](C)[C@@H]1C[C@@](O)(NC(=O)O1)[C@H](OC)/C=C/C=C(\C)C2 (some centres unmarked) [BT1718] ({X1-βAla}-[Sar][Sar][Sar][Sar][Sar][Sar][Sar][Sar][Sar][Sar]AC[dA]NE[1Nal][dA]CEDFYD[Tle]C-NH2; linker 12-18-25 via TBMB (inferred))
3LL syngeneic model; 1 mg/kg, day 14
  TGI: 104.9%
  Tumor Volume: 2649 mm^3
3LL syngeneic model; 3 mg/kg, day 14
  TGI: 69.9%
  Tumor Volume: 1764 mm^3
3LL syngeneic model; 10 mg/kg, day 14
  TGI: 89.9
  Tumor Volume: 350 mm^3
3LL syngeneic model; 1 mpk biw, day 0
  tumor volume trace over time: 106 ± 10 mm^3
3LL syngeneic model; 1 mpk biw, day 2
  tumor volume trace over time: 239 ± 47 mm^3
3LL syngeneic model; 1 mpk biw, day 4
  tumor volume trace over time: 405 ± 98 mm^3
3LL syngeneic model; 1 mpk biw, day 7
  tumor volume trace over time: 765 ± 190 mm^3
3LL syngeneic model; 1 mpk biw, day 9
  tumor volume trace over time: 1120 ± 267 mm^3
3LL syngeneic model; 1 mpk biw, day 11
  tumor volume trace over time: 1568 ± 392 mm^3
3LL syngeneic model; 1 mpk biw, day 14
  T/C: 104.9%
  TGI: −5.1%
  tumor volume trace over time: 2649 ± 553 mm^3
3LL syngeneic model; 1 mpk, biw, day 14, Mean ± SEM
  Tumor Volume: 2649 ± 553 mm^3
3LL syngeneic model; 3 mpk biw, day 0
  tumor volume trace over time: 105 ± 9 mm^3
3LL syngeneic model; 3 mpk biw, day 2
  tumor volume trace over time: 234 ± 48 mm^3
3LL syngeneic model; 3 mpk biw, day 4
  tumor volume trace over time: 423 ± 86 mm^3
3LL syngeneic model; 3 mpk biw, day 7
  tumor volume trace over time: 706 ± 152 mm^3
3LL syngeneic model; 3 mpk biw, day 9
  tumor volume trace over time: 991 ± 245 mm^3
3LL syngeneic model; 3 mpk biw, day 11
  tumor volume trace over time: 1149 ± 313 mm^3
3LL syngeneic model; 3 mpk biw, day 14
  T/C: 69.9%
  TGI: 31.4%
  tumor volume trace over time: 1764 ± 471 mm^3
3LL syngeneic model; 3 mpk, biw, day 14, Mean ± SEM
  Tumor Volume: 1764 ± 471 mm^3
3LL syngeneic model; 10 mpk biw, day 0
  tumor volume trace over time: 106 ± 8 mm^3
3LL syngeneic model; 10 mpk biw, day 2
  tumor volume trace over time: 181 ± 21 mm^3
3LL syngeneic model; 10 mpk biw, day 4
  tumor volume trace over time: 272 ± 38 mm^3
3LL syngeneic model; 10 mpk biw, day 7
  tumor volume trace over time: 339 ± 86 mm^3
3LL syngeneic model; 10 mpk biw, day 9
  tumor volume trace over time: 321 ± 85 mm^3
3LL syngeneic model; 10 mpk biw, day 11
  tumor volume trace over time: 343 ± 92 mm^3
3LL syngeneic model; 10 mpk biw, day 14
  T/C: 13.8%
  TGI: 89.9%
  tumor volume trace over time: 350 ± 105 mm^3
3LL syngeneic model; 10 mpk, biw, day 14, Mean ± SEM
  Tumor Volume: 350 ± 105 mm^3
3LL syngeneic model; all mice
  body weight effect: maintained their bodyweight well
[1]
  route of excretion: excreted mainly through the kidney in urine
